Measurements as given in ChEMBL document CHEMBL4346657, “Anticancer activity, dual prooxidant/antioxidant effect and apoptosis induction profile of new bichalcophene-5-carboxamidines” (Eur J Med Chem, 2019).
The source made the active and inactive calls. The rule behind the calls is not given here.

Tests used:
UO-31 = assay: Antiproliferative activity against human UO31 cells assessed as growth inhibition after 48 hrs by sulforhodamine B assay; type: functional; conditions: UO-31, 48 h
TK-10 = assay: Antiproliferative activity against human TK10 cells assessed as growth inhibition after 48 hrs by sulforhodamine B assay; type: functional; conditions: TK-10, 48 h
PC-3 = assay: Antiproliferative activity against human PC3 cells assessed as growth inhibition after 48 hrs by sulforhodamine B assay; type: functional; conditions: PC-3, 48 h
OVCAR-3 = assay: Antiproliferative activity against human OVCAR3 cells assessed as growth inhibition after 48 hrs by sulforhodamine B assay; type: functional; conditions: OVCAR-3, 48 h
MCF7 = assay: Antiproliferative activity against human MCF7 cells assessed as growth inhibition after 48 hrs by sulforhodamine B assay; type: functional; conditions: MCF7, 48 h
[1] = tested on: Panel NCI-60 (60 carcinoma cell lines); assay: Antiproliferative activity against human NCI60 cells assessed as growth inhibition at 10 uM after 48 hrs by sulforhodamine B assay; type: functional; conditions: read-out: GI
DU-145 = assay: Antiproliferative activity against human DU145 cells assessed as growth inhibition after 48 hrs by sulforhodamine B assay; type: functional; conditions: DU-145, 48 h
ACHN = assay: Antiproliferative activity against human ACHN cells assessed as growth inhibition after 48 hrs by sulforhodamine B assay; type: functional
A498 = assay: Antiproliferative activity against human A498 cells assessed as growth inhibition after 48 hrs by sulforhodamine B assay; type: functional; conditions: A498, 48 h
SK-OV-3 = assay: Antiproliferative activity against human SKOV3 cells assessed as growth inhibition after 48 hrs by sulforhodamine B assay; type: functional; conditions: SK-OV-3, 48 h
NCI/ADR-RES = assay: Antiproliferative activity against human NCI-ADR-RES cells assessed as growth inhibition after 48 hrs by sulforhodamine B assay; type: functional
OVCAR-8 = assay: Antiproliferative activity against human OVCAR8 cells assessed as growth inhibition after 48 hrs by sulforhodamine B assay; type: functional; conditions: OVCAR-8, 48 h
OVCAR-4 = assay: Antiproliferative activity against human OVCAR4 cells assessed as growth inhibition after 48 hrs by sulforhodamine B assay; type: functional; conditions: OVCAR-4, 48 h
UACC-62 = assay: Antiproliferative activity against human UACC62 cells assessed as growth inhibition after 48 hrs by sulforhodamine B assay; type: functional; conditions: UACC-62, 48 h
SK-MEL-2 = assay: Antiproliferative activity against human SK-MEL-2 cells assessed as growth inhibition after 48 hrs by sulforhodamine B assay; type: functional; conditions: SK-MEL-2, 48 h
MDA-MB-435 = assay: Antiproliferative activity against human MDA-MB-435 cells assessed as growth inhibition after 48 hrs by sulforhodamine B assay; type: functional; conditions: MDA-MB-435, 48 h
Malme-3M = assay: Antiproliferative activity against human MALME-3M cells assessed as growth inhibition after 48 hrs by sulforhodamine B assay; type: functional
U-251 = assay: Antiproliferative activity against human U251 cells assessed as growth inhibition after 48 hrs by sulforhodamine B assay; type: functional; conditions: U-251, 48 h
SNB-75 = assay: Antiproliferative activity against human SNB75 cells assessed as growth inhibition after 48 hrs by sulforhodamine B assay; type: functional; conditions: SNB-75, 48 h
SF-295 = assay: Antiproliferative activity against human SF295 cells assessed as growth inhibition after 48 hrs by sulforhodamine B assay; type: functional; conditions: SF-295, 48 h
SF-268 = assay: Antiproliferative activity against human SF268 cells assessed as growth inhibition after 48 hrs by sulforhodamine B assay; type: functional; conditions: SF-268, 48 h
SW-620 = assay: Antiproliferative activity against human SW620 cells assessed as growth inhibition after 48 hrs by sulforhodamine B assay; type: functional; conditions: SW-620, 48 h
HT-29 = assay: Antiproliferative activity against human HT-29 cells assessed as growth inhibition after 48 hrs by sulforhodamine B assay; type: functional; conditions: HT-29, 48 h
HCT-116 [2] = assay: Antiproliferative activity against human HCT116 cells assessed as growth inhibition after 48 hrs by sulforhodamine B assay; type: functional; conditions: HCT-116, 48 h
COLO 205 = assay: Antiproliferative activity against human COLO205 cells assessed as growth inhibition after 48 hrs by sulforhodamine B assay; type: functional; conditions: COLO 205, 48 h
NCI-H522 = assay: Antiproliferative activity against human NCI-H522 cells assessed as growth inhibition after 48 hrs by sulforhodamine B assay; type: functional; conditions: NCI-H522, 48 h
NCI-H460 = assay: Antiproliferative activity against human NCI-H460 cells assessed as growth inhibition after 48 hrs by sulforhodamine B assay; type: functional; conditions: NCI-H460, 48 h
NCI-H322M = assay: Antiproliferative activity against human NCI-H322M cells assessed as growth inhibition after 48 hrs by sulforhodamine B assay; type: functional
NCI-H226 = assay: Antiproliferative activity against human NCI-H226 cells assessed as growth inhibition after 48 hrs by sulforhodamine B assay; type: functional; conditions: NCI-H226, 48 h
HOP-62 = assay: Antiproliferative activity against human HOP62 cells assessed as growth inhibition after 48 hrs by sulforhodamine B assay; type: functional; conditions: HOP-62, 48 h
EKVX = assay: Antiproliferative activity against human EKVX cells assessed as growth inhibition after 48 hrs by sulforhodamine B assay; type: functional
RPMI-8226 = assay: Antiproliferative activity against human RPMI8226 cells assessed as growth inhibition after 48 hrs by sulforhodamine B assay; type: functional; conditions: RPMI-8226, 48 h
K562 = assay: Antiproliferative activity against human K562 cells assessed as growth inhibition after 48 hrs by sulforhodamine B assay; type: functional, cell-based; conditions: K562, 48 h; for IC50: read-out: IC50
CCRF-CEM = assay: Antiproliferative activity against human CCRF-CEM cells assessed as growth inhibition after 48 hrs by sulforhodamine B assay; type: functional
Hs-578T = assay: Antiproliferative activity against human Hs578T cells assessed as growth inhibition after 48 hrs by sulforhodamine B assay; type: functional
[3] = Haemolytic activity in human erythrocytes assessed as induction of hemolysis at 10 mM after 30 mins relative to H202; type: cell-based, Erythrocyte; conditions: read-out: Activity
Erythrocyte [4] = assay: Haemolytic activity in human erythrocytes assessed as induction of hemolysis at 1.25 mM after 30 mins relative to H202; type: cell-based; conditions: erythrocyte, 0.5 h, 1250 µM
Erythrocyte [5] = assay: Haemolytic activity in human erythrocytes assessed as induction of hemolysis at 0.625 mM after 30 mins relative to H202; type: cell-based; conditions: erythrocyte, 0.5 h, 625 µM
[6] = Antioxidant activity assessed as DPPH radical scavenging activity incubated in dark for 30 mins by spectrophotometric method relative to ascorbic acid; type: functional
[7] = Antioxidant activity assessed as ABTS radical scavenging activity by spectrophotometric analysis relative to control; type: functional; design: concentration or dose not given beside the values; conditions: dose or concentration not given here
[8] = Antioxidant activity assessed as ABTS radical scavenging activity by spectrophotometric method relative to ascorbic acid; type: functional
[9] = Pro-oxidant activity assessed as increase in bleomycin-Fe2+ induced calf thymus DNA damage at 2 mM after 1 hr by thiobarbituric acid based absorbance analysis
HCT-116 [10] = assay: […] in CDK1 mRNA expression in human HCT116 cells at 100 nM after 6 hrs hrs by SYBR green dye-based qRT-PCR analysis relative to control; type: functional

Compound: COc1ccc2cc(-c3ccc(-c4ccc(C(=N)N)s4)s3)ccc2c1
- GI50 (UO-31): 2880 nM
- GI50 (TK-10): 14200 nM
- GI50 (PC-3): 2130 nM
- GI50 (OVCAR-3): 2420 nM
- GI50 (MCF7): 1910 nM
- inhibition of growth at 10 µM [1]: 95.3%
- GI50 (DU-145): 1700 nM
- GI50 (ACHN): 3060 nM
- GI50 (A498): 14300 nM
- GI50 (SK-OV-3): 17900 nM
- GI50 (NCI/ADR-RES): 2290 nM
- GI50 (OVCAR-8): 2340 nM
- GI50 (OVCAR-4): 1820 nM
- GI50 (UACC-62): 2010 nM
- GI50 (SK-MEL-2): 2660 nM
- GI50 (MDA-MB-435): 2010 nM
- GI50 (Malme-3M): 3320 nM
- GI50 (U-251): 1830 nM
- GI50 (SNB-75): 10400 nM
- GI50 (SF-295): 5070 nM
- GI50 (SF-268): 2100 nM
- GI50 (SW-620): 1910 nM
- GI50 (HT-29): 1720 nM
- GI50 (HCT-116 [2]): 2080 nM
- GI50 (COLO 205): 2040 nM
- GI50 (NCI-H522): 1920 nM
- GI50 (NCI-H460): 1940 nM
- GI50 (NCI-H322M): 2020 nM
- GI50 (NCI-H226): 23600 nM
- GI50 (HOP-62): 1780 nM
- GI50 (EKVX): 2140 nM
- GI50 (RPMI-8226): 2160 nM
- IC50 (K562): 1180 nM
- GI50 (CCRF-CEM): 1510 nM
- GI50 (Hs-578T): 16600 nM
- hemolysis at 0.5 h, 10000 µM [3]: 18.7%
- Activity (Erythrocyte [4]): Non-Toxic
- Activity (Erythrocyte [5]): Non-Toxic
- fold change (FC) [6]: 0.5
- inhibition [7]: 57.4%
- fold change (FC) [8]: 0.6
- Activity [9]: Active
- fold change (FC) (HCT-116 [10]): 0.93

Compound: COc1ccc(-c2ccc(-c3ccc(C(=N)N)o3)o2)cc1
- GI50 (UO-31): 1720 nM
- GI50 (TK-10): 7970 nM
- GI50 (PC-3): 1880 nM
- GI50 (OVCAR-3): 920 nM
- GI50 (MCF7): 330 nM
- inhibition of growth at 10 µM [1]: 86.4%
- GI50 (DU-145): 1910 nM
- GI50 (ACHN): 1800 nM
- GI50 (A498): 1760 nM
- GI50 (SK-OV-3): 5630 nM
- GI50 (NCI/ADR-RES): 1880 nM
- GI50 (OVCAR-8): 3190 nM
- GI50 (OVCAR-4): 2220 nM
- GI50 (UACC-62): 1290 nM
- GI50 (SK-MEL-2): 5710 nM
- GI50 (MDA-MB-435): 290 nM
- GI50 (Malme-3M): 3970 nM
- GI50 (U-251): 1740 nM
- GI50 (SNB-75): 1470 nM
- GI50 (SF-295): 1680 nM
- GI50 (SF-268): 2040 nM
- GI50 (SW-620): 530 nM
- GI50 (HT-29): 480 nM
- GI50 (HCT-116 [2]): 1070 nM
- GI50 (COLO 205): 1250 nM
- GI50 (NCI-H522): 1090 nM
- GI50 (NCI-H460): 1170 nM
- GI50 (NCI-H322M): 2260 nM
- GI50 (NCI-H226): 22000 nM
- GI50 (HOP-62): 1500 nM
- GI50 (EKVX): 2790 nM
- GI50 (RPMI-8226): 2680 nM
- IC50 (K562): 490 nM
- GI50 (CCRF-CEM): 1840 nM
- GI50 (Hs-578T): 4330 nM
- hemolysis at 0.5 h, 10000 µM [3]: 71.7%
- Activity (Erythrocyte [4]): Non-Toxic
- Activity (Erythrocyte [5]): Non-Toxic
- fold change (FC) [6]: 0.7
- inhibition [7]: 69.2%
- fold change (FC) [8]: 0.7
- Activity [9]: Active
- fold change (FC) (HCT-116 [10]): 1.02

Compound: COc1cc(OC)cc(-c2ccc(-c3ccc(C(=N)N)o3)o2)c1
- GI50 (UO-31): 2670 nM
- GI50 (TK-10): 13400 nM
- GI50 (PC-3): 4770 nM
- GI50 (OVCAR-3): 3260 nM
- GI50 (MCF7): 1800 nM
- inhibition of growth at 10 µM [1]: 55.9%
- GI50 (DU-145): 4280 nM
- GI50 (ACHN): 2050 nM
- GI50 (A498): 2890 nM
- GI50 (SK-OV-3): 14900 nM
- GI50 (NCI/ADR-RES): 8260 nM
- GI50 (OVCAR-8): 3750 nM
- GI50 (OVCAR-4): 3510 nM
- GI50 (UACC-62): 1980 nM
- GI50 (SK-MEL-2): 2440 nM
- GI50 (MDA-MB-435): 1520 nM
- GI50 (Malme-3M): 2040 nM
- GI50 (U-251): 2450 nM
- GI50 (SNB-75): 2200 nM
- GI50 (SF-295): 2080 nM
- GI50 (SF-268): 3400 nM
- GI50 (SW-620): 1880 nM
- GI50 (HT-29): 2770 nM
- GI50 (HCT-116 [2]): 2510 nM
- GI50 (COLO 205): 1840 nM
- GI50 (NCI-H522): 2300 nM
- GI50 (NCI-H460): 2320 nM
- GI50 (NCI-H322M): 2860 nM
- GI50 (NCI-H226): 2260 nM
- GI50 (HOP-62): 5650 nM
- GI50 (EKVX): 5090 nM
- GI50 (RPMI-8226): 2250 nM
- GI50 (K562): 1980 nM
- IC50 (K562): 1890 nM
- GI50 (CCRF-CEM): 2720 nM
- GI50 (Hs-578T): 8120 nM
- hemolysis at 0.5 h, 10000 µM [3]: 19.3%
- Activity (Erythrocyte [4]): Non-Toxic
- Activity (Erythrocyte [5]): Non-Toxic
- fold change (FC) [6]: 0.3
- inhibition [7]: 36%
- fold change (FC) [8]: 0.4
- Activity [9]: Active
- fold change (FC) (HCT-116 [10]): 1.24
